Experimental findings from ChEMBL document CHEMBL1132871, “Antimycobacterial activity of ionic fullerene derivatives” (Bioorg Med Chem Lett, 2000) are described below.

For this test, the system named is Mycobacterium tuberculosis. The experiment in a line: The compound was tested for its ability to inhibit the growth of Mycobacterium tuberculosis strain H6/99; Resistant. The class given is functional, organism-based.

Molecules are shown by their SMILES.

In the case of `CO[C@H]1/C=C/O[C@@]2(C)Oc3c(C)c(O)c4c(O)c(c(/C=N/N5CCN(C)CC5)c(O)c4c3C2=O)NC(=O)/C(C)=C\C=C\[C@H](C)[C@H](O)[C@@H](C)[C@@H](O)[C@@H](C)[C@H](OC(C)=O)[C@@H]1C`, the MIC entry is on record as “Resistant”.
Take `NNC(=O)c1ccncc1`: the MIC result was “Resistant”.
